Experimental data reported in a melting point compilation (Tetko et al.; mined from patent text by program, amines drawn as free bases though some values may be those of a salt).

Row | SMILES | melting point [°C]
1 | COc1ccc(C(=O)Nc2ccc(C(=O)NC(C)(C)C)cc2)cc1C12CC3CC(CC(C3)C1)C2 | 270 to 273
2 | OC1CCNc2ncc(Br)cc21 (stereo not given) | 125 to 128
3 | NCCNC(=O)CCCOc1ccc(C2=NNC(=O)CC2)cc1 | 174 to 175
4 | COC(=O)c1ccc(OCCCC2Cc3c(c(OC)c(OC)c(OC)c3OC)C2)cc1 | 70 to 72
5 | COC(=O)CCc1conc1-c1ccc(F)c(Cl)c1 | 39 to 40
6 | CC(=O)c1ccc(NC(=O)c2cc(Cl)cc(Cl)c2)cc1 | 199 to 200
7 | OCc1ccc(C23CNCC2C3)cc1 (stereo not given) | 80 to 82
8 | CCC(=O)N1CCC(C(=O)OC2c3ccccc3C(=O)N2c2ccc3ccc(Cl)nc3n2)CC1 (stereo not given) | 189
9 | COCCn1cc(C(=O)N2CCC(c3cc(CNC(=O)C(F)(F)F)ccc3F)CC2)c2c(-c3ccncc3)cccc21 | 152 to 155
10 | CCOC(=O)c1cc2cc(-c3ccccc3)ccc2o1 | 109 to 110
11 | CN(C)C=Nc1nc(CN2CCN(C(c3ccccc3)c3ccccc3)CC2)cs1 | 148 to 150
12 | Cc1cccc2c(=O)n(C3CCC(=O)NC3=O)c(C)nc12 (stereo not given) | 296 to 298
13 | COc1ccc(C2=CC=CCC2(OC(C)C)C(=O)O)c(OC)c1 (stereo not given) | 121 to 122
14 | NC(C=Cc1cccs1)=NO | 92
15 | Cn1c(-c2ccccc2F)c2ccsc2nc1=O | 191 to 192
16 | O=CC=Cc1c(C2CC2)nc2ccccc2c1-c1ccc(F)cc1 | 146 to 147
17 | OC(CCc1cccnc1)COc1ccc(CCc2ccccc2)cc1 (stereo not given) | 95 to 96
18 | Cc1ccc(Cl)cc1NC(=S)Nc1c(C)nn(C)c1C | 176 to 177
19 | CCOC(=O)c1cnc2ccc(OCC)nc2c1O | 275 to 278
20 | C[C@H](Cn1ncnn1)n1cnc2cc3c(=O)n([C@H](C)Cn4ncnn4)cnc3cc2c1=O | 255 to 256
21 | CCCCCC(C)(C)NC(=O)c1nn(-c2ccc(F)cc2F)c2c1C1CCC2C1 (stereo not given) | 76 to 78
22 | Cc1cc(Br)ccc1NC(=O)CC(=O)Sc1ccccc1 | 133 to 135
23 | CCCCNc1nc2cnnc(OCC)c2cc1C(=O)OCC | 98 to 99
24 | NC(=N[N+](=O)[O-])NCCC[C@@H](NC(=O)C(c1ccccc1)c1ccccc1)C(=O)NCc1ccc(COC(=O)Oc2ccccc2)cc1 | 186 to 187
25 | COc1cc(C)c(C(C)O)cc1NC(=S)N1CCN(c2cc(Cl)cc(Cl)c2)CC1 (stereo not given) | 166 to 168

Row | SMILES | melting point [°C]
26 | CSc1ccc(COc2cccc(C(=O)Nc3ccc(C#N)cc3)c2)cc1 | 147 to 148
27 | CN=C(NS(=O)(=O)c1ccc(Cl)cc1)SC | 121 to 123
28 | CCCc1nc(I)c(C=O)[nH]1 | 141 to 142
29 | Fc1ccc(CNc2nc(Nc3cccc(C(F)(F)F)c3)nc(C(F)(F)F)n2)cc1 | 106 to 107
30 | C#CCN1CCC(OC)(c2cccc(OCc3ccc4ccccc4c3)c2)C1 (stereo not given) | 63 to 65
31 | CC(=O)Oc1ccc(N2CCC(=O)c3ccccc32)cc1 | 130 to 132
32 | CCOC(=O)c1c(CCc2ccc(OC)cc2)nc2c(c1-c1ccc(C(=O)NCc3ccccn3)cc1)C(=O)N1CCC[C@H]1C2 | > 200
33 | COc1cc(OC)nc(C(=O)c2nccc(-c3ccccc3)c2C(=O)n2ccnc2)c1 | 126 to 128
34 | Fc1cccc2c(CCCc3ccc(Cl)cc3)ccnc12 | 97
35 | O=Cc1c(Cl)ccc2cc(Cl)cnc12 | 208
36 | Cc1ccc(S(=O)(=O)NC(=O)CC2(c3ccc(OCc4ccc5ccccc5n4)cc3)CCCC2)cc1 | 80
37 | C=C(C)C(=O)Nc1cc(C(C)(C)C)c(O)c(C(C)(C)C)c1 | 222 to 225
38 | CCOC(=O)c1cc(Cl)c(-n2ncc(C)n2)c(Cl)c1 | 136 to 138
39 | CCC(O)(c1ccccc1)c1ccc(C(=O)O)cc1 (stereo not given) | 128 to 130
40 | CCCCCNC(=S)NC(Cc1ccc(OC)cc1)=Nc1ccccc1 | 125 to 126
41 | Cc1nc(-n2ccc(OCc3cccnc3)cc2=O)sc1C(=O)NCc1ccccc1 | 214 to 216
42 | CCOC(=O)c1ncn2c(-c3cccnc3)ccnc12 | 184 to 186
43 | COC(=O)c1nsc(NC=O)n1 | 210 to 215
44 | O=C1CCC(c2ccc(OC(F)(F)F)cc2)N1 (stereo not given) | 105 to 106
45 | COc1cc2c(cc1OC)C(=O)C(=Cc1cccc([N+](=O)[O-])c1)CC2 | 186 to 187
46 | O=c1[nH]c(=O)n(C2CC(F)C(COC(c3ccccc3)(c3ccccc3)c3ccccc3)O2)cc1C#CI (stereo not given) | 73
47 | CC(F)(F)c1cccc(C[C@H]2NC(=O)O[C@H]2c2ccc(F)cc2)c1 (racemic) | 143 to 144
48 | COc1cccc(C(=O)N[C@H]2C[C@@H](c3cc(NC(=O)Cc4cccc5ccccc45)n[nH]3)C2)c1 | 125
49 | Clc1ccc2c(c1)C(c1ccco1)=NCC1CSCCN21 (stereo not given) | 138 to 140
50 | CCCc1nc(N)nc(N)c1N1CCN(Cc2ccccc2)CC1 | 157 to 160
